Values after ≈ are worked out from the molar mass of the structure shown.
Tests used:
[1] = tested on: Pseudomonas aeruginosa I.F.O.; assay: MIC, plate method, standard strains; type: cell-based; details: Table 4, standard strain; unit assumed
Method: (§1) The minimum inhibitory concentration (MIC) was determined by the plate method disclosed in "Chemotherapy" (Japan), Vol. 16, (1968), pages 98-99. The culture medium used was a Heart infusion agar (pH 7.4). The number of the cells per plate used in the inoculum was 10^4 (10^6 cells/ml).

[2] = tested on: Escherichia coli NIHJ; assay: MIC, plate method, standard strains; type: cell-based; details: Table 4, standard strain; unit assumed
Method: as §1

[3] = tested on: Staphylococcus aureus 209p; assay: MIC, plate method, standard strains; type: cell-based; details: Table 4, standard strain; unit assumed
Method: as §1

[4] = tested on: Proteus vulgaris 3027; assay: MIC, plate method, standard strains; type: cell-based; details: Table 4, standard strain; unit assumed
Method: as §1

[5] = tested on: Klebsiella pneumoniae; assay: MIC, plate method, standard strains; type: cell-based; details: Table 4, standard strain; unit assumed
Method: as §1

[6] = target: β-lactamase, Escherichia freundii GN 346 (Citrobacter freundii, UniProt Q46041); assay: Resistant activity against β-lactamase, iodometric assay; type: biochemical; details: control Cephalorizine = 100
Sequence of β-lactamase, Escherichia freundii GN 346 (Q46041 entry or part of it): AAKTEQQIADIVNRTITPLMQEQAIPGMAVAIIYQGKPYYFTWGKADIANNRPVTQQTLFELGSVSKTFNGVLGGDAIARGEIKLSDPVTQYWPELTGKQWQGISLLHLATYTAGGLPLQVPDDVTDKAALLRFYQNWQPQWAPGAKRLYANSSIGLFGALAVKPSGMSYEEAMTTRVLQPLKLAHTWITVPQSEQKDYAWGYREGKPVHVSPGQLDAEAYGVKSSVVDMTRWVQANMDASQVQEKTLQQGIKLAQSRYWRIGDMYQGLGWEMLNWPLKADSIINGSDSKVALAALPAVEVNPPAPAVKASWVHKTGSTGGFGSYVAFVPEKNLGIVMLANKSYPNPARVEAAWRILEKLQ
Method: (§2) (4) Resistant activity of each cephalosporin compound against β-lactamase, Proteus vulgaris GN 76 and Escherichia freundii GN 346:
(§3) The resistant activity of each cephalosporin compound against β-lactamase was measured in the manner described below.
(§4) β-lactamase was prepared from Proteus vulgaris GN 76 and Escherichia freundii GN 346. 10 ml of an overnight culture in Heart Infusion broth was diluted with 100 ml of a medium containing 2 g of yeast extract, 10 g of polypeptone, 2 g of glucose, 7 g of disodium hydrogen phosphate, 2 g of potassium dihydrogen phosphate, 1.2 g of ammonium sulfate and 0.4 g of magnesium sulfate, per liter, and incubated with shaking at 37° C. After incubation of 2 hrs, Penicillin G (50 μg/ml) was added as the inducer, and further incubated for 2 hrs. The resulting cells were collected by centrifugation (5,000 r.p.m.×10 min.) and washed two times with 0.1 M phosphate buffer (pH 7.0). Subsequently, the cells were subjected to sonication (20 KHz, 5 min.) and then centrifuged at 15,000 r.p.m. for 60 min. By using the supernatant of enzyme fluid, the stability of each compound against β-lactamase was determined by the iodometric assay method. Each numeral shown in Table 7-2 is a relative activity value calculated by assuming as 100 the activity of the control Cephalorizine.

[7] = target: T1, β-lactamase, Proteus vulgaris GN 76 (Proteus vulgaris, UniProt P52664); assay: as above; type: biochemical; details: control Cephalorizine = 100
T1 construct: By using the supernatant of enzyme fluid; endogenous in cells; host or cells: Proteus vulgaris GN 76 (penicillin G-induced cells, sonicated, 15,000 r.p.m. supernatant)
T1 sequence (P52664 30-300): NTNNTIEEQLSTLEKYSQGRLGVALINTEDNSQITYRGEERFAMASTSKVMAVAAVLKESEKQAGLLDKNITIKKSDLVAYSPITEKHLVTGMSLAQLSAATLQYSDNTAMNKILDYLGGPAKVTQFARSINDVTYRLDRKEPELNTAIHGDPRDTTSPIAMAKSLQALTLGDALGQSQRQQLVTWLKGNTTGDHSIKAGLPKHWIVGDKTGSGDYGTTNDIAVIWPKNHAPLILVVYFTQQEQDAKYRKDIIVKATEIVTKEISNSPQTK
Method: as §2, §3, §4

[8] = tested on: Pseudomonas aeruginosa; assay: MIC against clinical isolates; type: cell-based; details: unit assumed
[9] = tested on: Escherichia coli; assay: MIC against clinical isolates; type: cell-based; details: Table 6-2, clinical isolate; unit assumed
[10] = tested on: Staphylococcus aureus; assay: MIC against clinical isolates; type: cell-based; details: Table 6-1, clinical isolate; unit assumed
[11] = tested on: Klebsiella pneumoniae; assay: MIC against clinical isolates; type: cell-based; details: Table 6-4, clinical isolate; unit assumed

Row | SMILES | Relative activity (%) against β-lactamase, E. freundii GN 346 [6] [%] | Relative activity (%) against β-lactamase, Pr. vulgaris GN 76 [7] [%] | MIC Pseudomonas aeruginosa GN4 ([8]; Table 6-3, clinical isolate) [µg/mL] | MIC Pseudomonas aeruginosa GN 82 ([8]; Table 6-3, clinical isolate) [µg/mL] | MIC Pseudomonas aeruginosa GN 163 ([8]; Table 6-3, clinical isolate) [µg/mL] | MIC Pseudomonas aeruginosa GN 221 ([8]; Table 6-3, clinical isolate) [µg/mL] | MIC Pseudomonas aeruginosa GN 376 ([8]; Table 6-3, clinical isolate) [µg/mL] | MIC Pseudomonas aeruginosa GN 1035 ([8]; Table 6-3, clinical isolate) [µg/mL] | MIC Pseudomonas aeruginosa GN 1091 ([8]; Table 6-3, clinical isolate) [µg/mL] | MIC Pseudomonas aeruginosa GN 2565 ([8]; Table 6-3, clinical isolate) [µg/mL] | MIC Pseudomonas aeruginosa GN 2987 ([8]; Table 6-3, clinical isolate) [µg/mL] | MIC Pseudomonas aeruginosa S-2 ([8]; Table 6-4, clinical isolate) [µg/mL] | MIC Pseudomonas aeruginosa S-3 ([8]; Table 6-4, clinical isolate) [µg/mL] | MIC Pseudomonas aeruginosa S-4 ([8]; Table 6-4, clinical isolate) [µg/mL] | also measured
1 | CCN1CCN(C(=O)NC(C(=O)NC2C(=O)N3C(C(=O)O)=C(COC(N)=O)CSC23)c2ccc(O)cc2)C(=O)C1=O (single isomer, unassigned) [Compound No. 84] | 1 | 10 | – | – | – | – | – | – | – | – | – | – | – | – | MIC Pseudomonas aeruginosa I.F.O. [1]: 25 µg/mL (≈ 42.3 µM); MIC Escherichia coli NIHJ [2]: < 1.57 µg/mL; MIC Staphylococcus aureus 209p [3]: < 1.57 µg/mL; MIC Proteus vulgaris 3027 [4]: < 1.57 µg/mL; MIC Klebsiella pneumoniae [5]: < 1.57 µg/mL
2 | O=C(Cc1cccs1)N[C@@H]1C(=O)N2C(C(=O)[O-])=C(C[n+]3ccccc3)CS[C@H]12 [Cephalorizine, reference compound] | 100 | 100 | > 200 | > 200 | > 200 | > 200 | > 200 | > 200 | > 200 | > 200 | > 200 | > 200 | > 200 | > 200 | –
3 | CCN1CCN(C(=O)NC(C(=O)NC2C(=O)N3C(C(=O)O)=C(CSc4nnnn4C)CSC23)c2ccccc2)C(=O)C1=O (centres unmarked) [Compound No. 69] | 0.1 | 4 | 25 (≈ 39.7 µM) | – | – | – | – | – | – | – | – | – | – | – | –
4 | CC(=O)OCC1=C(C(=O)O)N2C(=O)[C@@H](NC(=O)[C@H](N)c3ccccc3)[C@H]2SC1 [Sodium Cephaloglycin, reference compound] | 0.3 | 1300 | > 200 | – | – | – | – | – | – | – | – | – | – | > 200 | –
5 | CC(=O)OCC1=C(C(=O)O)N2C(=O)[C@@H](NC(=O)Cc3cccs3)[C@H]2SC1 [Sodium Cephalothin, reference compound] | 17 | 105 | > 200 | > 200 | > 200 | > 200 | > 200 | > 200 | > 200 | > 200 | > 200 | > 200 | > 200 | > 200 | MIC Escherichia coli GN 3435 [9]: 6.25 µg/mL; MIC Escherichia coli GN 3452 [9]: 12.5 µg/mL; MIC Escherichia coli GN 3481 [9]: 12.5 µg/mL; MIC Escherichia coli K-1 [9]: 6.25 µg/mL; MIC Escherichia coli K-2 [9]: 6.25 µg/mL; MIC Staphylococcus aureus F-1 [10]: < 0.4 µg/mL; MIC Staphylococcus aureus F-2 [10]: < 0.4 µg/mL; MIC Staphylococcus aureus F-3 [10]: < 0.4 µg/mL; MIC Staphylococcus aureus F-4 [10]: < 0.4 µg/mL; MIC Staphylococcus aureus F-5 [10]: 1.56 µg/mL; MIC Staphylococcus aureus MS 8588 [10]: < 0.4 µg/mL; MIC Staphylococcus aureus MS 8596 [10]: < 0.4 µg/mL; MIC Staphylococcus aureus MS 8619 [10]: < 0.4 µg/mL; MIC Staphylococcus aureus MS 8684 [10]: < 0.4 µg/mL; MIC Staphylococcus aureus MS 8713 [10]: < 0.4 µg/mL; MIC Pseudomonas aeruginosa GN ([8]; Table 6-3, clinical isolate, strain number not given): > 200 µg/mL; MIC Pseudomonas aeruginosa S-1 ([8]; Table 6-4, clinical isolate): > 200 µg/mL; MIC Klebsiella pneumoniae GN 917 [11]: 3.13 µg/mL; MIC Klebsiella pneumoniae GN 4081 [11]: 12.5 µg/mL; MIC Klebsiella pneumoniae GN 4117 [11]: 6.25 µg/mL

Source: patent publication US4327097A, “Novel penicillins” (Toyama Chemical Co., Ltd., priority 1974, dated 1982)
